Consider eight compounds from ChEMBL document CHEMBL1148413, “5-Fluorinated L-lysine analogues as selective induced nitric oxide synthase inhibitors” (J Med Chem, 2004).

Assay [1] addresses T1, Nitric oxide synthase 1 (Homo sapiens, UniProt P29475). The assay is described as follows: Inhibition concentration against Neuronal nitric oxide synthase (nNOS) at 10 uM concentration.
Assay [2] concerns the target T2, Nitric oxide synthase 3 (Homo sapiens) (UniProt P29474).
T2 sequence (whole entry): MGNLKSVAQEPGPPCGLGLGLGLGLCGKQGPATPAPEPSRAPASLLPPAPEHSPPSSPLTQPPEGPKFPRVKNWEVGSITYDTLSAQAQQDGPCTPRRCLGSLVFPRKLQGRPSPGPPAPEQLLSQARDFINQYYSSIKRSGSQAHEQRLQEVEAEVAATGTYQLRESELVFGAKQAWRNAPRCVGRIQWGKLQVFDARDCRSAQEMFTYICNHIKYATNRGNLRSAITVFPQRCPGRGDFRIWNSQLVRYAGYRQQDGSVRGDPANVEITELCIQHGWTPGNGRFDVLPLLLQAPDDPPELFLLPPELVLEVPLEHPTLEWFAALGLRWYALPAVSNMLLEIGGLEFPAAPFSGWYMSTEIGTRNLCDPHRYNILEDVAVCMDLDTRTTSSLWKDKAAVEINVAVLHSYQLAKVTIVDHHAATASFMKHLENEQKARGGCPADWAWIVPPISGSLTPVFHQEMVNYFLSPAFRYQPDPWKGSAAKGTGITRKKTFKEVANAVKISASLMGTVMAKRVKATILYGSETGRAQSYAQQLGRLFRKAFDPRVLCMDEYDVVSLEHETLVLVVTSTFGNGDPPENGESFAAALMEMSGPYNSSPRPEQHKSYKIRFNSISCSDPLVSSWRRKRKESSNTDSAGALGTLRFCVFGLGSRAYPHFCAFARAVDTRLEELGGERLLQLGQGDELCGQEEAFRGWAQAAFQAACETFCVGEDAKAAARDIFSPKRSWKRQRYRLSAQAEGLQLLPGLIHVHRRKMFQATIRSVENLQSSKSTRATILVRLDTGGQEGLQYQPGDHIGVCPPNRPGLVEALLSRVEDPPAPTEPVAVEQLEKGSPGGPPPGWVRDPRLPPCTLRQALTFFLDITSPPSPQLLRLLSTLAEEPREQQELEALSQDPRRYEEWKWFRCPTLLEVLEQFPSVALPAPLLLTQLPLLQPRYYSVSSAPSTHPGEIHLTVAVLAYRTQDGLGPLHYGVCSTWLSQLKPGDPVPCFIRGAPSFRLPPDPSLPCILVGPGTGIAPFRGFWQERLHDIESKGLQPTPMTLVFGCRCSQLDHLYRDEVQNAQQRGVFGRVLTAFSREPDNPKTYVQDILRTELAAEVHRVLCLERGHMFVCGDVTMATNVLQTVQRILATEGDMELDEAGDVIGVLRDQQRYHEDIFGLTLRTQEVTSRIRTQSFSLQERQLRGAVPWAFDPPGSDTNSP
The assay is described as follows: Selectivity for endothelial nitric oxide synthase over inducible nitric oxide synthase.

In assay [3] the target is T3, Nitric oxide synthase, inducible (Homo sapiens, UniProt P35228). The assay is described as follows: Inhibition concentration against Inducible nitric oxide synthase (iNOS) at 10 uM concentration.
T3 sequence (P35228 whole entry): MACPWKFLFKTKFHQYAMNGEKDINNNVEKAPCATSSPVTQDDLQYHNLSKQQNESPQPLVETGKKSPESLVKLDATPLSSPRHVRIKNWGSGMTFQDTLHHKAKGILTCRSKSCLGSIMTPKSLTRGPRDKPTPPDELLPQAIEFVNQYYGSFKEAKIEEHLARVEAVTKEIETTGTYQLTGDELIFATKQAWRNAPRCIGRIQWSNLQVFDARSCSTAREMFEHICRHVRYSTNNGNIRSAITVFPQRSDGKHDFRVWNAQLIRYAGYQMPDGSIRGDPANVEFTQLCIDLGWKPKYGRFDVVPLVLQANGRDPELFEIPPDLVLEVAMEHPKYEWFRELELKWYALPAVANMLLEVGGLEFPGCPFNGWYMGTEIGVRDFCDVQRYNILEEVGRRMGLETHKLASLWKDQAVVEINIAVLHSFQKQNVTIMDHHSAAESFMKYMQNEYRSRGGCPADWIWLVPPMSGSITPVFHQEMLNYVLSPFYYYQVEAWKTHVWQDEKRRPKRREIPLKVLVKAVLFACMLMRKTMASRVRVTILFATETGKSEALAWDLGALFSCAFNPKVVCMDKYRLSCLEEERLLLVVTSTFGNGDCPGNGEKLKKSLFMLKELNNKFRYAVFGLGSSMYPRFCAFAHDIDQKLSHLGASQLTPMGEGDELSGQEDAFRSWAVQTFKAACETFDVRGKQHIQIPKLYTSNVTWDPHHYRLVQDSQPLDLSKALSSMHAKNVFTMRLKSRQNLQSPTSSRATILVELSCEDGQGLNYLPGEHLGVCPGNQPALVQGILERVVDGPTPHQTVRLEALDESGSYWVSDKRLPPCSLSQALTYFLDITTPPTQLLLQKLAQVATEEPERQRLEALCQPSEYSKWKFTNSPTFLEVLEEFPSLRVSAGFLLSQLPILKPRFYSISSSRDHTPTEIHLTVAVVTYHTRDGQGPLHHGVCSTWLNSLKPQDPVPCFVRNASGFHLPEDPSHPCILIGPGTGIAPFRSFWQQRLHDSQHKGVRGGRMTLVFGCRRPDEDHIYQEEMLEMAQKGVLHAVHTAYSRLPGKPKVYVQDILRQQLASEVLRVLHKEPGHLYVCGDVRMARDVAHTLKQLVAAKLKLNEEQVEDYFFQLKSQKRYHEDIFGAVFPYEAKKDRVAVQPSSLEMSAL
The target in assay [4] is T4, Nitric oxide synthase 3 (Homo sapiens, UniProt P29474).
T4 sequence (P29474 whole entry): T2 sequence (whole entry)
The assay is described as follows: (§1) Inhibition concentration against Endothelial nitric oxide synthase (eNOS) at 10 uM concentration.

In assay [5] the target is T1, Nitric oxide synthase 1. The assay is described as follows: Selectivity for Neuronal nitric oxide synthase over inducible nitric oxide synthase.
In assay [6] the target is T4, Nitric oxide synthase 3. The assay is described as follows: Percent inhibition against Endothelial nitric oxide synthase (eNOS) at 10 uM concentration.
Assay [7] concerns the target T3, Nitric oxide synthase, inducible. Conditions: 10 uM.
For assay [8], the target named is T1, Nitric oxide synthase 1. Conditions: 10 uM.
The target of assay [9] is T2, Nitric oxide synthase 3 (Homo sapiens). The assay is described as §1.

T1 sequence (P29475 whole entry): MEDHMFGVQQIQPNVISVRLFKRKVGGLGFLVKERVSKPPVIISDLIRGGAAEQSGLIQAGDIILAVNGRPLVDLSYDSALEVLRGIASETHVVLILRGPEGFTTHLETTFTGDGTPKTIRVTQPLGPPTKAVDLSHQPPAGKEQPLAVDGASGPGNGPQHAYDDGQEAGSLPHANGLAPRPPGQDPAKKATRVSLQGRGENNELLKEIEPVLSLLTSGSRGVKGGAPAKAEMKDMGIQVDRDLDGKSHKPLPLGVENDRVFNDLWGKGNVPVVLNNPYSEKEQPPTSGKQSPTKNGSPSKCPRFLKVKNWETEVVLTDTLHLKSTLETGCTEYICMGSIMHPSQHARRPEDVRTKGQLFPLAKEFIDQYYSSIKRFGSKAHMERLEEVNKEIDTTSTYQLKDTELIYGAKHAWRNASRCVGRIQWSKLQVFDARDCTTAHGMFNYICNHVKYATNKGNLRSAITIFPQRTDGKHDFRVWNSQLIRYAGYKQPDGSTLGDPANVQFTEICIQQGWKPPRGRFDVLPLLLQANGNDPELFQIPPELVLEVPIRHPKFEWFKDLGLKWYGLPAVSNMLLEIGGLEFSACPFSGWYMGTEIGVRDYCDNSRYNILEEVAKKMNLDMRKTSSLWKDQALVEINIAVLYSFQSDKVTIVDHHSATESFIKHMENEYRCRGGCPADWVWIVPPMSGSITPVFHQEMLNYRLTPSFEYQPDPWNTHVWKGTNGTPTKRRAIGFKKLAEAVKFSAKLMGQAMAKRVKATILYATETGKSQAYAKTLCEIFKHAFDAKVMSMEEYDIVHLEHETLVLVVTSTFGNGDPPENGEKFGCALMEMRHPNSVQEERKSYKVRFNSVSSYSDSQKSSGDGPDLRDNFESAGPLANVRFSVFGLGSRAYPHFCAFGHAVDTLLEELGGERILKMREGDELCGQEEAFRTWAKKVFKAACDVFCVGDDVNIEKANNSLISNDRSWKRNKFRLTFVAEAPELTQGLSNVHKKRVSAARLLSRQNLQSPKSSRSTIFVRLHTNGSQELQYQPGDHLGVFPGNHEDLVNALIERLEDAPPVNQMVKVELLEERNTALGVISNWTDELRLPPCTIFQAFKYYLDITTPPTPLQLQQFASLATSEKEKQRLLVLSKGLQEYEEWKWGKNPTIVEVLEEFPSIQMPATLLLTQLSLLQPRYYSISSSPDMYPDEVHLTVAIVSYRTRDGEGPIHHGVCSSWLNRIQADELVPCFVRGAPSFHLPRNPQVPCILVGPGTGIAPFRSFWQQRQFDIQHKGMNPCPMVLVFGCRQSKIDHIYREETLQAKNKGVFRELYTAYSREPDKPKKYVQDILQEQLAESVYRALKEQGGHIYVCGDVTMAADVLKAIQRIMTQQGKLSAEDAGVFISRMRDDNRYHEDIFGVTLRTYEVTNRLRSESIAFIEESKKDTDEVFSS

Broadly, the IC50 is the concentration needed to halve the response being measured. With `CC(=N)NCC(F)CCC(N)C(=O)O` (centres undefined), the IC50 in assay [1] is 70.4 µM; in [3], 7.84 µM; in assay [4] it was 182 µM. In addition, the results for the Selectivity in [2] and in assay [5] were 23 and 9, respectively.
Consider `CC(=N)NC[C@@H](F)CC[C@H](N)C(=O)O`, for which the values for the IC50 in assay [1], in assay [3] and in assay [4] were 21.7 µM, 2.36 µM and 81 µM, respectively. For the same compound, the Selectivity in assay [2] came out at 34; in assay [5], 9.
The like results for `CC(=N)NC[C@@H](F)CC[C@@H](N)C(=O)O` were, in that order, 311 µM, 47.8 µM, 374 µM, 8 and 7.
Regarding `CC(=N)NCCCC[C@H](N)C(=O)O` [L-NIL], the Selectivity in assay [2] turned out to be 28; in [5], 7. The IC50 in assay [3] is 4.9 µM.
On to `CC(=N)NCC(F)(F)CC[C@H](N)C(=O)O`, for which the values for the IC50 in assay [1], in assay [3] and in assay [4] were 33.8 µM, 8.75 µM and 57.5 µM, respectively. Also, the values for the Selectivity in assay [2] and in [5] were 7 and 4, respectively.
With `CC(=N)NCC(F)(F)CCC(N)C(=O)O` (centres undefined), the IC50 in assay [1] was found to be 140 µM; in assay [3], 21.4 µM; in [4], 139 µM. Also, the Selectivity in [2] and in [5] was 7 each time.
By Inhibition is commonly meant the change of the read-out against control, counted positive when it falls. The inhibition is the percentage by which the read-out fell short of the control. `CC(=N)NC[C@H](F)CC[C@H](N)C(=O)O` displayed an Inhibition in [6] of 28.2%. Further, the values for the inhibition in [7] and in assay [8] were 4% and 0%, respectively.
Regarding `CC(=N)NC[C@H](F)CC[C@@H](N)C(=O)O`, the results for the inhibition in assay [9], in assay [7] and in assay [8] were 6.52%, 8.9% and 18%, respectively.
